According to patent US20260021109A1, “PROSTANOID RECEPTOR AGONISTS AS NON-TUBERCULOUS ANTI-MYCOBACTERIAL AGENTS” (priority 2022, published 2026):

Experiments:
[1] = test system: M. abscessus; settings: zebrafish, in vivo
[2] = test system: zebrafish homolog of the EP2 receptor (EP2a); assay: CRISPR EP2a KO zebrafish infected with M. abscessus; type: in vivo; settings: M. abscessus infected control and F0 CRISPR EP2a KO zebrafish; FIG. 7
Source text: To explore the mechanism of action of Treprostinil in this context, the zebrafish homolog of the EP2 receptor was knocked out using CRISPR and control and KO zebrafish were infected with M. abscessus. […] This definitively confirms that Treprostinil acts via an EP2-mediated host-directed therapeutic effect.

[3] = test system: M. tuberculosis; assay: in vitro infection of THP1 monocytic human cell line with M. tuberculosis; type: cell-based; settings: THP1 cells, untreated control 0.50, p=0.0165, FIG. 4B
[4] = test system: M. abscessus; assay: M. abscessus in liquid culture (absence of THP1 cells); type: cell-based; settings: liquid culture medium, no THP1 cells; Treprostinil 50 μM; versus untreated; FIG. 6
[5] = test system: M. abscessus; assay: in vitro infection of THP1 monocytic human cell line with M. abscessus; type: cell-based; settings: for M. abscessus survival rate: THP1 cells, 48H, untreated control 2.7, p=0.005, FIG. 4A
[6] = test system: M. marinum; assay: M. marinum infection of zebrafish; type: in vivo; settings: zebrafish infected by M. marinum; FIG. 4C

## CCCCC[C@H](O)CC[C@@H]1[C@H]2Cc3cccc(OCC(=O)O)c3C[C@H]2C[C@H]1O [Treprostinil]
[1]
  killing of M. abscessus compared with imipenem: significantly more effective than imipenem
[2]
  Treprostinil rescue in EP2a KO zebrafish: completely abrogated
[3]; 400 nM
  M. tuberculosis survival rate: 0.44
[3]; 1 μM
  M. tuberculosis survival rate: 0.37
[4]
  direct antibiotic effect on M. abscessus growth: no difference in growth
[5]; FIG. 5B, THP1 killing of M. abscessus according to legend b39
  dose response of killing of M. abscessus: dose response to the effect was also observed
[5]; 400 nM
  M. abscessus survival rate: 1.07
[5]; 1 μM
  M. abscessus survival rate: 1.24
[6]
  effect on M. marinum numbers in zebrafish: no observable effect
